Where “and” joins values, the source holds several entries; their conditions need not be identical. Equal values may be shown once. Toxic doses and inconclusive results are not listed.

This passage reports T/C results from PubChem BioAssay AID248 (DTP/NCI, 2004).

This assay relates to L1210 leukemia ip in BDF1 mice, survival T/C. Nature of the assay: NCI In Vivo Anticancer Drug Screen. Data for tumor model L1210 Leukemia (intraperitoneal) in B6D2F1 (BDF1) mice. The following applies: endpoint: mean survival time, higher = longer survival. The method, boiled down: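 In this screen, tumor-bearing mice given compound are compared to those given vehicle, and their survival values are reported as a treated-to-control quotient.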

Where [1] appears, read: dose: 100.0 mg/kg/injection, schedule: Q01DX009 (ip), vehicle: saline.
Where [2] appears, read: dose: 100.0 mg/kg/injection, schedule: Q04DX003 (ip), vehicle: saline.
Where [3] appears, read: dose: 200.0 mg/kg/injection, schedule: Q01DX009 (ip), vehicle: saline.
Where [4] appears, read: dose: 400.0 mg/kg/injection, schedule: Q04DX003 (ip), vehicle: saline.
The mark [5] stands for this setting: dose: 100.0 mg/kg/injection, schedule: Q01DX001 (ip), vehicle: carboxymethylcellulose (CMC).
[6] abbreviates: dose: 200.0 mg/kg/injection, schedule: Q01DX001 (ip), vehicle: carboxymethylcellulose (CMC).
The mark [7] stands for this setting: dose: 400.0 mg/kg/injection, schedule: Q01DX001 (ip), vehicle: carboxymethylcellulose (CMC).
Where [8] appears, read: dose: 100.0 mg/kg/injection, schedule: Q01DX001 (ip), vehicle: saline.
Setting [9] is: dose: 200.0 mg/kg/injection, schedule: Q01DX001 (ip), vehicle: saline.
[10] abbreviates: dose: 400.0 mg/kg/injection, schedule: Q01DX001 (ip), vehicle: saline.
The mark [11] stands for this setting: dose: 100.0 mg/kg/injection, schedule: Q01DX009 (ip), vehicle: other.
[12] abbreviates: dose: 200.0 mg/kg/injection, schedule: Q01DX009 (ip), vehicle: other.
The mark [13] stands for this setting: dose: 50.0 mg/kg/injection, schedule: Q01DX009 (ip), vehicle: Klucel (hydroxypropylcellulose) (HPC).
Where [14] appears, read: dose: 100.0 mg/kg/injection, schedule: Q04DX003 (ip), vehicle: Klucel (hydroxypropylcellulose) (HPC).
[15] abbreviates: dose: 200.0 mg/kg/injection, schedule: Q04DX003 (ip), vehicle: Klucel (hydroxypropylcellulose) (HPC).
The mark [16] stands for this setting: dose: 400.0 mg/kg/injection, schedule: Q01DX009 (ip), vehicle: other.

As to `O=C(O)C(O)COc1ccc(Cl)cc1Cl` (configuration not stated), the T/C is 92 % of control under setting [1]; 93 % of control under setting [2]; 107 % of control under setting [3]; 102 % of control (dose: 400.0 mg/kg/injection, schedule: Q01DX009 (ip), vehicle: saline); 102 % of control under setting [4].
With `CC(=O)Oc1ccc(OC(C)=O)c2cc3ccccc3cc12`, the T/C runs as follows: under setting [5], 87 % of control; under setting [6], 93 % of control; under setting [7], 91 % of control.
As for `Cc1cc(CCl)c(C)cc1CCl`, the T/C was 96 % of control (dose: 25.0 mg/kg/injection, schedule: Q04DX003 (ip), vehicle: saline with Tween-80) and 90 % of control (dose: 50.0 mg/kg/injection, schedule: Q04DX003 (ip), vehicle: saline with Tween-80).
On to `N=C(N)SCCN`, for which the T/C reads like this: under setting [8], 97 % of control; under setting [1], 103 % of control; under setting [9], 90 % of control; under setting [3], 111 % of control; under setting [10], 118 % of control.
With `Cc1ccc2nc(N=C(N)N)[nH]c2c1`, the T/C by setting is: (dose: 75.0 mg/kg/injection, schedule: Q01DX001 (ip), vehicle: saline) 93 % of control; (dose: 150.0 mg/kg/injection, schedule: Q01DX001 (ip), vehicle: saline) 94 % of control.
With `CCCCOB(OCCCC)c1ccc(B(OCCCC)OCCCC)cc1`, the T/C runs as follows: under setting [8], 97 % of control; under setting [9], 101 % of control; under setting [10], 89 % of control.
Consider `C[S+](C)CCCCCC[S+](C)C`, for which the T/C under setting [2] was 102 % of control.
As for `CC([NH-])=O.CC([NH-])=O.[Pt+2]`, the T/C (dose: 100.0 mg/kg/injection, schedule: Q01DX009 (ip), vehicle: water) is 105 % of control; the T/C (dose: 100.0 mg/kg/injection, schedule: Q04DX003 (ip), vehicle: water) was 101 % of control; the T/C (dose: 200.0 mg/kg/injection, schedule: Q01DX009 (ip), vehicle: water) was 95 % of control; the T/C (dose: 200.0 mg/kg/injection, schedule: Q04DX003 (ip), vehicle: water) is 103 % of control.
In the case of `CNc1ccccc1C(=O)N/N=C\c1ccc(Cl)cc1Cl`, the T/C was 105 % of control (dose: 100.0 mg/kg/injection, schedule: Q04DX002 (ip), vehicle: Klucel (hydroxypropylcellulose) (HPC)); 94 % of control (dose: 200.0 mg/kg/injection, schedule: Q04DX002 (ip), vehicle: Klucel (hydroxypropylcellulose) (HPC)); 97 % of control (dose: 400.0 mg/kg/injection, schedule: Q04DX002 (ip), vehicle: Klucel (hydroxypropylcellulose) (HPC)).
Turning to `COC(/C=N/O)c1ccccc1` (configuration not stated), the T/C (dose: 50.0 mg/kg/injection, schedule: Q01DX009 (ip), vehicle: other) was 88 % of control; the T/C under setting [11] is 88 % of control; the T/C under setting [12] was 101 % of control.
Consider `NC(=O)C(c1ccccc1)C1(O)CCCCC1` (configuration not stated), for which the T/C (dose: 50.0 mg/kg/injection, schedule: Q01DX001 (ip), vehicle: saline) is 102 % of control; the T/C under setting [8] was 104 % of control; the T/C under setting [9] is 96 % of control; the T/C under setting [10] was 91 % of control.
Consider `CNS(C)(=O)=O`, for which the T/C under setting [8] was 108 % of control; the T/C under setting [2] was 101 % of control; the T/C under setting [9] was 106 % of control; the T/C (dose: 200.0 mg/kg/injection, schedule: Q04DX003 (ip), vehicle: saline) was 104 % of control; the T/C under setting [10] was 95 % of control; the T/C under setting [4] is 106 % of control.
As for `COc1cc(C(=O)COC(C)=O)cc2c1OC(c1ccccc1)(c1ccccc1)O2`, the T/C under setting [9] was 86 % of control.
Turning to `COC(=O)C(CCC(=O)O)NC(=O)OCc1ccccc1` (configuration not stated), the T/C by setting is: (dose: 25.0 mg/kg/injection, schedule: Q01DX009 (ip), vehicle: Klucel (hydroxypropylcellulose) (HPC)) 89 % of control; (dose: 50.0 mg/kg/injection, schedule: Q01DX001 (ip), vehicle: Klucel (hydroxypropylcellulose) (HPC)) 94 % of control; under setting [13], 97 % of control; (dose: 100.0 mg/kg/injection, schedule: Q01DX001 (ip), vehicle: Klucel (hydroxypropylcellulose) (HPC)) 103 % of control; under setting [14], 96 % of control; (dose: 200.0 mg/kg/injection, schedule: Q01DX001 (ip), vehicle: Klucel (hydroxypropylcellulose) (HPC)) 97 % of control. Under setting [15], the T/C is 86 % of control.
Regarding `CCCCNc1ncnc2c1ncn2C1OC(CO)C(O)C1O` (configuration not stated), the T/C (dose: 50.0 mg/kg/injection, schedule: Q01DX005 (ip), vehicle: saline) was 105 % of control.
With `CCc1ccc(NC(=S)NC(=O)c2ccccc2OC)cc1`, the T/C runs as follows: under setting [11], 98 % of control; under setting [12], 103 % of control; under setting [16], 93 % of control.
Consider `O=Cc1ccc(C=O)c(Cl)c1`, for which the T/C (dose: 100.0 mg/kg/injection, schedule: Q01DX009 (ip), vehicle: saline sonified) is 100 % of control; the T/C under setting [14] is 100 % of control; the T/C (dose: 200.0 mg/kg/injection, schedule: Q01DX009 (ip), vehicle: saline sonified) is 87 % of control; the T/C under setting [15] is 95 % of control; the T/C (dose: 400.0 mg/kg/injection, schedule: Q01DX009 (ip), vehicle: saline sonified) was 94 % of control; the T/C (dose: 400.0 mg/kg/injection, schedule: Q04DX003 (ip), vehicle: Klucel (hydroxypropylcellulose) (HPC)) was 103 % of control.
As for `COc1ccc2c(c1)CCC(=O)O2`, the T/C by setting is: (dose: 50.0 mg/kg/injection, schedule: Q01DX001 (ip), vehicle: carboxymethylcellulose (CMC)) 100 % of control; under setting [5], 96 % of control; (dose: 100.0 mg/kg/injection, schedule: Q04DX003 (ip), vehicle: saline sonified) 102 % of control; under setting [6], 100 % of control; (dose: 200.0 mg/kg/injection, schedule: Q04DX003 (ip), vehicle: saline sonified) 104 % of control; under setting [7], 100 % of control. The T/C (dose: 400.0 mg/kg/injection, schedule: Q04DX003 (ip), vehicle: saline sonified) is 102 % of control.
In the case of `CCOC(=O)C1(C(=O)OCC)C(C)CC(O)N1C(=O)c1ccccc1[N+](=O)[O-]` (configuration not stated), the T/C is, setting by setting: (dose: 25.0 mg/kg/injection, schedule: Q04DX003 (ip), vehicle: Klucel (hydroxypropylcellulose) (HPC)) 100 % of control; (dose: 50.0 mg/kg/injection, schedule: Q04DX003 (ip), vehicle: Klucel (hydroxypropylcellulose) (HPC)) 91 % of control; under setting [14], 92 % of control.
In the case of `CCCCCCCCCCCC(=O)CCC`, the T/C by setting is: under setting [11], 87 % of control; (dose: 100.0 mg/kg/injection, schedule: Q04DX003 (ip), vehicle: other) 103 % of control; under setting [12], 95 % of control; (dose: 200.0 mg/kg/injection, schedule: Q04DX003 (ip), vehicle: other) 105 % of control; under setting [16], 89 % of control; (dose: 400.0 mg/kg/injection, schedule: Q04DX003 (ip), vehicle: other) 103 % of control.
With `[Cl][Ge]([Cl])([c]1ccccc1)[c]1ccccc1`, the T/C by setting is: under setting [13], 96 % of control; (dose: 100.0 mg/kg/injection, schedule: Q01DX009 (ip), vehicle: Klucel (hydroxypropylcellulose) (HPC)) 96 % of control; under setting [14], 98 % of control; under setting [15], 94 % of control.
For the compound `O=C(O)C(CSC(c1ccccc1)(c1ccccc1)c1ccccc1)N=Cc1cccs1` (configuration not stated), the T/C (dose: 22.0 mg/kg/injection, schedule: Q01DX009 (ip), vehicle: saline) is 123 % of control; the T/C (dose: 66.0 mg/kg/injection, schedule: Q01DX009 (ip), vehicle: saline with Tween-80) is 109 % of control; the T/C (dose: 66.0 mg/kg/injection, schedule: Q01DX009 (ip), vehicle: saline) was 152 % of control and 214 % of control; the T/C (dose: 150.0 mg/kg/injection, schedule: Q01DX009 (ip), vehicle: saline with Tween-80) was 98 % of control; the T/C (dose: 150.0 mg/kg/injection, schedule: Q01DX009 (ip), vehicle: saline) was 104 % of control.
Take `O=C(O)CC1CCCNC1` (configuration not stated): the T/C by setting is: (dose: 75.0 mg/kg/injection, schedule: Q04DX003 (ip), vehicle: saline) 100 % of control; (dose: 150.0 mg/kg/injection, schedule: Q04DX003 (ip), vehicle: saline) 103 % of control; (dose: 300.0 mg/kg/injection, schedule: Q04DX003 (ip), vehicle: saline) 101 % of control.
